target: Poly [ADP-ribose] polymerase 1 (Bos taurus, UniProt P18493); assay: Inhibition of calf thymus PARP-1
Sequence (P18493 whole entry): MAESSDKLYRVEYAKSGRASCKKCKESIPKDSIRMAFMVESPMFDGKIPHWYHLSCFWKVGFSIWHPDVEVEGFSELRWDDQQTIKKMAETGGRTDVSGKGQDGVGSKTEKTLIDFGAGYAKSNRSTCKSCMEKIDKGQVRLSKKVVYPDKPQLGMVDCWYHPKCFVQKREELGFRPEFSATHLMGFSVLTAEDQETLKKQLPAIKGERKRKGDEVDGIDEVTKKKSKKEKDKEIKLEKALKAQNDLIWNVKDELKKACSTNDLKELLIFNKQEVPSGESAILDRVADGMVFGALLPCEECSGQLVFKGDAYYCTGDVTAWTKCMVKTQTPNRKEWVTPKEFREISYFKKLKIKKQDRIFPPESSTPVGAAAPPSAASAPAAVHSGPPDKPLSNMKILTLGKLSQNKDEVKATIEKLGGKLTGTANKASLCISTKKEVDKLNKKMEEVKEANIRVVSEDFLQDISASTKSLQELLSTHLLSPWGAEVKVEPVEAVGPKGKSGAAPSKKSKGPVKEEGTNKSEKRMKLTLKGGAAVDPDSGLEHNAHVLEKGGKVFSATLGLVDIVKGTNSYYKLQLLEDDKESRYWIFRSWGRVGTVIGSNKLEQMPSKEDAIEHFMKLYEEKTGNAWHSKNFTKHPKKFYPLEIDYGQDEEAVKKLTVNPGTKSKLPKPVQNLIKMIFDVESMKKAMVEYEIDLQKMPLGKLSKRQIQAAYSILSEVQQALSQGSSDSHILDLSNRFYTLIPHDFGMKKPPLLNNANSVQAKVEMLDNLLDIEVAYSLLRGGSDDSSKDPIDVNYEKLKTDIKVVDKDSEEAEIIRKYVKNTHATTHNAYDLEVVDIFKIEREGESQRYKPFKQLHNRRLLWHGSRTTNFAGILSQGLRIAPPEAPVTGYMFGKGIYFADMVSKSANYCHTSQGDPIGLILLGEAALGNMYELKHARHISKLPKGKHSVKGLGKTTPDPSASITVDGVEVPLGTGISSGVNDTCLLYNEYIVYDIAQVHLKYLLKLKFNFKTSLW

SMILES	IC50 [nM]
Nc1cccc2c(=O)[nH]ccc12	250

target: T1, Poly [ADP-ribose] polymerase 1 (Homo sapiens, UniProt P09874); assay: Inhibition of PARP-1 (unknown origin) in broken nuclear preparation
T1 sequence (P09874 whole entry): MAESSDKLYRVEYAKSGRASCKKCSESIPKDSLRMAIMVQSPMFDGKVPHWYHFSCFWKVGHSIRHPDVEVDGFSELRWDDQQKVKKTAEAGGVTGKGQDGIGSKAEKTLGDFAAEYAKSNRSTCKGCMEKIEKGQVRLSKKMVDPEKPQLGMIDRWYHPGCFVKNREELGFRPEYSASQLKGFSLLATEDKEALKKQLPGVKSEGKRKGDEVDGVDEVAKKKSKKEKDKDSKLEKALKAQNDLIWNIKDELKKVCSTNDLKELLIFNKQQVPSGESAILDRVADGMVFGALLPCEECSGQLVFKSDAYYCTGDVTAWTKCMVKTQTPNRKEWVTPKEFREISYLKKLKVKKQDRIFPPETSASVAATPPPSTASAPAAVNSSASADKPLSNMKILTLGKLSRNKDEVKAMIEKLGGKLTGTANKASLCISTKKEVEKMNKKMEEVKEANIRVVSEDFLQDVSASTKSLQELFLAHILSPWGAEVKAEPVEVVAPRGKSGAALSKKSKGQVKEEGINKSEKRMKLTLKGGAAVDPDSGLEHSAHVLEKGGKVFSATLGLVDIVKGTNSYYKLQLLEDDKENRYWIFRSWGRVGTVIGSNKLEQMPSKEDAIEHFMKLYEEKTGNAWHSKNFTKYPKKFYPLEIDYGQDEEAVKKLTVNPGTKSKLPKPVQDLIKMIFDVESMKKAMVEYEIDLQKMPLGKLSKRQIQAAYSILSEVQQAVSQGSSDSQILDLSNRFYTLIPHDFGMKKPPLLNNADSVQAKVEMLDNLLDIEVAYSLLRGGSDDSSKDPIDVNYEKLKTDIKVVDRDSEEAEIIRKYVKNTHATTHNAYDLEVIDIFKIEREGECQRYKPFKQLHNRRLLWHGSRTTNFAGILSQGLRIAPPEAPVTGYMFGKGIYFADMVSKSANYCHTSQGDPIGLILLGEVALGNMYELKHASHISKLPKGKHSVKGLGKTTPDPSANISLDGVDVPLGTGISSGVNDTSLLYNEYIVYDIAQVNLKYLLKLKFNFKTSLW

SMILES	IC50 [nM]
Nc1cccc2c(=O)[nH]ccc12	300

test system: not listed separately; assay: Solubility of the compound in water; format: physicochemical

SMILES	solubility [mM]
Cl.Nc1cccc2c(=O)[nH]c(Cc3ccccc3)cc12	> 30
Cl.Nc1cccc2c(=O)[nH]c(-c3ccc(Cl)cc3)cc12	> 30
CCCCCc1cc2c(N)cccc2c(=O)[nH]1.Cl	> 30
Cc1ccc(-c2cc3c(N)cccc3c(=O)[nH]2)cc1.Cl	> 30

Further lines, results first:

solubility [mM]	SMILES
> 30	Cl.Nc1cccc2c(=O)[nH]c(-c3ccc(C(F)(F)F)cc3)cc12
> 30	Cl.Nc1cccc2c(=O)[nH]c(-c3cccs3)cc12
> 30	CC(C)Cc1cc2c(N)cccc2c(=O)[nH]1.Cl
> 30	CCc1cc2c(N)cccc2c(=O)[nH]1.Cl
> 30	Cc1cc2c(N)cccc2c(=O)[nH]1.Cl
> 30	Cl.Nc1cccc2c(=O)[nH]c(-c3ccccc3)cc12
> 30	COc1ccc(-c2cc3c(N)cccc3c(=O)[nH]2)cc1.Cl

target: Poly [ADP-ribose] polymerase 2 (Mus musculus, UniProt O88554); assay: Inhibition of mouse PARP-2
Sequence (O88554 whole entry): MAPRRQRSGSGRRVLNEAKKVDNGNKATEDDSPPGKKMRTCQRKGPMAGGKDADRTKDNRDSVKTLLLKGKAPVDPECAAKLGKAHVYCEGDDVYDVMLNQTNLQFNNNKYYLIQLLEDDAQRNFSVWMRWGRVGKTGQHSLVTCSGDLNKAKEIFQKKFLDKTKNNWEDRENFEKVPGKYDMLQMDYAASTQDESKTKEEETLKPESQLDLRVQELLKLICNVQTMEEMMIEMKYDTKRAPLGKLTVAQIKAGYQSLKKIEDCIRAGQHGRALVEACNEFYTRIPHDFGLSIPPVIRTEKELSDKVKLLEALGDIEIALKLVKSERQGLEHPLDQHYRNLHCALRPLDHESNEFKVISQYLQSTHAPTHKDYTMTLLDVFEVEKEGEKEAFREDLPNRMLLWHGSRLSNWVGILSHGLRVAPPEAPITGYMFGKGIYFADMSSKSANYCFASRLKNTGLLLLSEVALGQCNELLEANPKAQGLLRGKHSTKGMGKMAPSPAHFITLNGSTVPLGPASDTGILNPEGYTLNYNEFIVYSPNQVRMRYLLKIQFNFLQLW

SMILES	IC50 [nM]
Cc1ccc(-c2cc3c(N)cccc3c(=O)[nH]2)cc1	120
Nc1cccc2c(=O)[nH]c(-c3ccc(C(F)(F)F)cc3)cc12	170
Nc1cccc2c(=O)[nH]c(-c3ccc(Cl)cc3)cc12	160
Cc1cc2c(N)cccc2c(=O)[nH]1	260
Nc1cccc2c(=O)[nH]c(-c3ccccc3)cc12	480

Now from value to compound:

IC50 [nM]	SMILES
830	CCc1cc2c(N)cccc2c(=O)[nH]1
730	COc1ccc(-c2cc3c(N)cccc3c(=O)[nH]2)cc1

target: T1, Poly [ADP-ribose] polymerase 1; assay: Inhibition of human PARP-1 assessed as synthesis of [3H]-ADP-ribose polymers from [3H]-NAD+ by scintillation proximity assay

SMILES	IC50 [nM]
Nc1cccc2c(=O)[nH]ccc12	1600
